Test results published in publication PMC8139662 (Journal of Virology, 2021).

Test system: polarized human airway epithelial cultures (HAEC)

COc1cccc2[nH]c(C(=O)N[C@@H](CC(C)C)C(=O)N[C@@H](C[C@@H]3CCNC3=O)C(=O)CO)cc12 [PF-00835231]
effect on transepithelial resistance (TEER) over time: we did not observe this trend
